Laboratory results: PMC6934599, “Phenoxyethyl Piperidine/Morpholine Derivatives as PAS and CAS Inhibitors of Cholinesterases: Insights for Future Drug Design” (Scientific Reports, 2019)
Entries after “also recorded” stand apart in the source; their conditions may differ. Read-outs that look alike come from different tables or passages of the source.

Experiments:
[1] = biological target: T1, BuChE (E.C.3.1.1.8, from equine serum) (Equus caballus, UniProt P81908); assay: biochemical; type: biochemical; details: for cholinesterase inhibitory activity against eqBuChE: in words; for inhibitory activity for eqBuChE: up to 100 µM concentrations; for IC50: modified Ellman's method, read-out: eqBuChE IC50
T1 construct: BuChE (E.C.3.1.1.8, from equine serum); purchased Sigma-Aldrich and Fluka; host or cells: equine serum
Protocol: (§1) All the synthesized compounds were screened for their cholinesterase activity by Ellman’s spectrophotometric method with a slight modification. […] In brief, enzymatic reactions were accomplished in 96-well plates with total volume of 270 µL. Each well contained 0.1 M phosphate buffer (pH 7.4), 0.08 U/mL AChE or 0.05 U/mL BuChE and 0.3 mM of DTNB. In order to considering the influence of DMSO percentage on the enzymatic activity of AChE, different concentrations of the test sample were prepared in final concentrations of 0.2% DMSO. Then contents were incubated for 15 min at room temperature. The reaction was started with the addition of 20 µL of 0.45 mM substrate (ATCI/BTCI) into premixed enzyme/buffer/inhibitor mixture and monitored by using plate reader Synergy HT, Biotek, USA at 412 nm. The activity in the absence of sample compounds was considered as a blank. The percentage inhibition was calculated from (blank – test sample)/blank × 100.

[2] = biological target: T2, AChE (E.C.3.1.1.7, from electric eel) (Electrophorus electricus, UniProt O42275); assay: biochemical; type: biochemical; details: for cholinesterase inhibitory activity against eeAChE: in words
T2 construct: purchased Sigma-Aldrich and Fluka
Protocol: as §1

[3] = biological target: T3, eeAChE (Electrophorus electricus, UniProt O42275); assay: Kinetic study of eeAChE inhibition (Lineweaver-Burk); type: biochemical
T3 construct: purchased Sigma-Aldrich and Fluka
Protocol: Two fixed concentrations of the inhibitor (IC50, 2IC50) were chosen and for each concentration, the initial velocity (V) of the substrate ATCI/BTCI hydrolysis was measured at different concentrations in the range of 0–1.5 mM. […] Furthermore, Ki value was obtained by extrapolating the slopes of Lineweaver-Burk plots against inhibitor concentrations (Fig. 3B).
(§2) To determine the mechanisms of action of 5c and 7c, a series of experiments were performed at different concentrations of the substrate ATCI/BTCI. The inhibitor concentrations were (IC50, 2IC50). Substrates ATCI/BTCI concentrations were 0, 0.13, 0.3, 0.45, 0.675, 1.01 and 1.51 mM in all kinetic studies. Pre-incubation and measurement time were the same as reported in the perivous assay protocol. Kinetic characterization analysis was done spectrometrically at 412 nm.

[4] = biological target: T4, eqBuChE (Equus caballus, UniProt P81908); assay: Kinetic study of eqBuChE inhibition (Lineweaver-Burk); type: biochemical
T4 construct: BuChE (E.C.3.1.1.8, from equine serum); purchased Sigma-Aldrich and Fluka; host or cells: equine serum
Protocol: as §2

[5] = test system: Aβ peptide; details: cited from earlier work
[6] = test system: AChE; details: cited from earlier work
[7] = modified Ellman's method, read-out: eeAChE IC50

T2 sequence (O42275 24-633): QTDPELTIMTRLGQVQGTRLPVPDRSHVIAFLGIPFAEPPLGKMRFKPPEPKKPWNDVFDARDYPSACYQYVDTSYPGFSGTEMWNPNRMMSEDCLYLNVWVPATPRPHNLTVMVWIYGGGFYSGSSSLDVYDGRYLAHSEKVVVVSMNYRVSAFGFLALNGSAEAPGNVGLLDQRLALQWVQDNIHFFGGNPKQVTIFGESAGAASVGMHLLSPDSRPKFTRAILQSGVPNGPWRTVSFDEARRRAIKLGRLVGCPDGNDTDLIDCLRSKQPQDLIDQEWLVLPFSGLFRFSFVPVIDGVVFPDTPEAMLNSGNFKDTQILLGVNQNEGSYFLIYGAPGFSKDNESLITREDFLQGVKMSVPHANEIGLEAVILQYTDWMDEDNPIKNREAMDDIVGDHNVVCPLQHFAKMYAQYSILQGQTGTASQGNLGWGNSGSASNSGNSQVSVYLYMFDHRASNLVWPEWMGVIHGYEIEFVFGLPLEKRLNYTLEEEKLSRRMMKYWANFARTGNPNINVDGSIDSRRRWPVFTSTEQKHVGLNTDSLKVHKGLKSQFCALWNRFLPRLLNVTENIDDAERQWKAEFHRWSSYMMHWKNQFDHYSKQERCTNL
T1 sequence (P81908 whole entry): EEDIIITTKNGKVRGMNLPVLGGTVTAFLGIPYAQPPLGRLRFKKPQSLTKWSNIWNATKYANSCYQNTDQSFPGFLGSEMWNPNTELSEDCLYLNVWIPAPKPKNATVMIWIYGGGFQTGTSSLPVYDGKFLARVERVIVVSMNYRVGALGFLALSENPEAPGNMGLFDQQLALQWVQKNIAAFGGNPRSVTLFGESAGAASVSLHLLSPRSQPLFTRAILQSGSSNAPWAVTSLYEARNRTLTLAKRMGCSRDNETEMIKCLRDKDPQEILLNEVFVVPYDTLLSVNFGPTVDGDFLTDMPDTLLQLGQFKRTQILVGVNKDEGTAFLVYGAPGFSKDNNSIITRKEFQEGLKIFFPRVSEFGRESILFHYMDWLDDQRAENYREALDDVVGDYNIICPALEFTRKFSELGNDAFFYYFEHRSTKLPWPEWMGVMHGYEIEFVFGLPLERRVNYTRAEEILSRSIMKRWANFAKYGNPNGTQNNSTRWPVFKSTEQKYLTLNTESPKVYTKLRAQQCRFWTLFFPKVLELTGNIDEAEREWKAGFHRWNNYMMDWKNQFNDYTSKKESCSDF
T3 sequence (O42275 24-633): as the sequence (O42275 24-633) above
T4 sequence (P81908 whole entry): as the sequence (P81908 whole entry) above

O=Cc1ccc(OCCN2CCOCC2)cc1 [3b, 4-(2-morpholinoethoxy)benzaldehyde]
cholinesterase inhibitory activity against eqBuChE [1]: did not show any cholinesterase inhibitory activity
cholinesterase inhibitory activity against eeAChE [2]: did not show any cholinesterase inhibitory activity

N#CC(C#N)=Cc1ccc(OCCN2CCCCC2)cc1 [5a]
inhibitory activity for eqBuChE [1]: no inhibitory activity
IC50 [2]: 2.8 ± 0.05 µM

N#CC(C#N)=Cc1ccc(OCCN2CCOCC2)cc1 [5b]
cholinesterase inhibitory activity against eqBuChE [1]: did not show any cholinesterase inhibitory activity
cholinesterase inhibitory activity against eeAChE [2]: did not show any cholinesterase inhibitory activity

COC(=O)/C(C#N)=C/c1ccc(OCCN2CCCCC2)cc1 [5c]
type of inhibition of eeAChE ([3]; Lineweaver-Burk plots, substrate ATCI): mixed-type inhibition
Ki ([3]; slopes of Lineweaver-Burk plots against inhibitor concentrations): 0.053 µM
inhibitory activity for eqBuChE [1]: no inhibitory activity was found; also recorded: no inhibition
selectivity for AChE than for BuChE ([2]; eeAChE vs eqBuChE IC50): more than 200 fold
IC50 [2, 7]: 0.5 µM

N#CC1=C(N)OC2=C(C(=O)CCC2)C1c1ccc(OCCN2CCCCC2)cc1 (centres unmarked) [7a, 2-Amino-5-oxo-4-(4-(2-(piperidin-1-yl)ethoxy)phenyl)-5,6,7,8-tetrahydro-4H-chromene-3-carbonitrile]
IC50 [1]: 8.1 ± 0.5 µM
IC50 [2, 7]: 20.4 ± 9.3 µM

CC1(C)CC(=O)C2=C(C1)OC(N)=C(C#N)C2c1ccc(OCCN2CCCCC2)cc1 (centres unmarked) [7c, 2-Amino-7,7-dimethyl-5-oxo-4-(4-(2-(piperidin-1-yl)ethoxy)phenyl)-5,6,7,8-tetrahydro-4H-chromene-3-carbonitrile]
IC50 [1]: 2.5 ± 0.6 µM
IC50 [2, 7]: 35.6 ± 3.7 µM
type of inhibition of eqBuChE ([4]; Lineweaver-Burk plot, substrate BTCI): mixed-type of inhibition
Ki ([4]; plot of slopes against inhibitor concentration): 0.156 µM

Cc1cc2c(c(=O)o1)C(c1ccc(OCCN3CCCCC3)cc1)C(C#N)=C(N)O2 (centres unmarked) [7e, 2-Amino-7-methyl-5-oxo-4-(4-(2-(piperidin-1-yl)ethoxy)phenyl)-4H,5H-pyrano[4,3-b]pyran-3-carbonitrile]
inhibitory activity for eqBuChE [1]: no inhibitory activity
IC50 [2, 7]: 2.1 ± 0.05 µM

Cc1cc2c(c(=O)o1)C(c1ccc(OCCN3CCOCC3)cc1)C(C#N)=C(N)O2 (centres unmarked) [7f, 2-Amino-7-methyl-4-(4-(2-morpholinoethoxy)phenyl)-5-oxo-4H,5H-pyrano[4,3-b]pyran-3-carbonitrile]
cholinesterase inhibitory activity against eqBuChE [1]: did not show any cholinesterase inhibitory activity
cholinesterase inhibitory activity against eeAChE [2]: did not show any cholinesterase inhibitory activity

COc1cc2c(cc1OC)C(=O)C(CC1CCN(Cc3ccccc3)CC1)C2 (centres unmarked) [Donepezil, donepezil]
inhibition of the aggregation of Aβ peptide ([5]; at 100 µM, as stated in introduction section): 22%

CC[N+](C)(CC)CCC[n+]1c(-c2ccccc2)c2cc(N)ccc2c2ccc(N)cc21 [Propidium, propidium]
effect on Aβ aggregation [5]: reduces the aggregation

CC[N+](C)(C)c1cccc(O)c1 [edrophonium]
effect on Aβ aggregation [5]: fails to slow down the Aβ aggregation
IC50 [6]: 5.36 µM
